For the experiment, the target named is T1, FXR ligand binding domain (Homo sapiens, UniProt Q96RI1).
T1 sequence (Q96RI1 1-486): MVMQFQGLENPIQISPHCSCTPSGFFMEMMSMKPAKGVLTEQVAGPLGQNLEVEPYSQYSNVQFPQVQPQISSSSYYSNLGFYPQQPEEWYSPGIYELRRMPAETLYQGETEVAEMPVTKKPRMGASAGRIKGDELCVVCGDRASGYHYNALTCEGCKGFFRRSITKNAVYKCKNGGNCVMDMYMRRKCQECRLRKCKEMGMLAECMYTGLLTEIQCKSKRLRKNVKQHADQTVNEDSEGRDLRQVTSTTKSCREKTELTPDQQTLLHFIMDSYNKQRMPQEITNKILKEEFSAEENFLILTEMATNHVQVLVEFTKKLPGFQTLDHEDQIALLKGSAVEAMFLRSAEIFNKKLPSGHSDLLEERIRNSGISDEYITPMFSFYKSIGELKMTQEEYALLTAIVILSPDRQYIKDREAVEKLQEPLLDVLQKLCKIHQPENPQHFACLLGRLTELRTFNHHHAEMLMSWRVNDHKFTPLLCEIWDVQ
The experiment can be described thus: Radioligand binding assay (radioligand displacement, scintillation proximity). To be noted: GST-FXR LBD fusion protein on SPA beads, radioligand 2,N-dicyclohexyl-2-[2-(2,4 dimethoxy-phenyl)-benzoimidazol-1-yl]-acetamide, RT 30 minutes. As for the experimental part: The following tests were carried out in order to determine the activity of the compounds of formula I. Background information on the binding assay can be found in: Nichols J S et al. “Development of a scintillation proximity assay for peroxisome proliferator-activated receptor gamma ligand binding domain”, (1998) Anal. Biochem. 257: 112-119.
Bacterial and mammalian expression vectors were constructed to produce glutathione-s-transferase (GST) and Gal4 DNA binding domain (GAL) proteins fused to the ligand binding domain (LBD) of human FXR (aa 193-473). To accomplish this, the portions of the sequences encoding the FXR LBD were amplified by polymerase chain reaction (PCR) from a full-length clone by PCR and then subcloned into the plasmid vectors. The final clone was verified by DNA sequence analysis.
The induction, expression, and subsequent purification of GST-LBD fusion protein was performed in E. coli strain BL21(pLysS) cells by standard methods (Current Protocols in Molecular Biology, Wiley Press, ed. Ausubel et al).
Radioligand Binding Assay
Binding of test substances to the FXR ligand binding domain was assessed in a radioligand displacement assay. The assay was performed in a buffer consisting of 50 mM Hepes, pH 7.4, 10 mM NaCl, 5 mM MgCl2. For each reaction well in a 96-well plate, 40 nM of GST-FXR LBD fusion protein was bound to 10 μg glutathione ytrium silicate SPA beads (Pharmacia Amersham) in a final volume of 50 μl by shaking. A radioligand (eg. 40 nM) of 2,N-dicyclohexyl-2-[2-(2,4 dimethoxy-phenyl)-benzoimidazol-1-yl]-acetamide) was added, and the reaction incubated at RT for 30 minutes in the presence of test compounds followed by scintillation proximity counting. All binding assays were performed in 96-well plates and the amount of bound ligand was measured on a Packard TopCount using OptiPlates (Packard). Dose response curves were performed within a range of concentration from 6×10^−9 M to 2.5×10^−5 M.
Regarding `O=C(O)C1(Oc2ccc(OC(c3c4cc(F)c(F)cc4nn3-c3ccc(Cl)cc3)C3CCCCC3)cc2)CC1` (racemic) [Example 56, [rac]-1-(4-{[2-(4-Chloro-phenyl)-5,6-difluoro-2H-indazol-3-yl]-cyclohexyl-methoxy}-phenoxy)-cyclopropanecarboxylic acid], the IC50 worked out at 170 nM.
The result for `Clc1ccc(-n2nc3c(c2C(CNc2ccc(-c4nnn[nH]4)cc2)C2CCCCC2)CCCC3)cc1` (racemic) [Example 65, [rac]-{2-[2-(4-Chloro-phenyl)-4,5,6,7-tetrahydro-2H-indazol-3-yl]-2-cyclohexyl-ethyl}-[4-(1H-tetrazol-5-yl)-phenyl]-amine] reads 4 nM; that for `O=C(N[C@H]1CC[C@H](O)CC1)C(c1c2c(nn1-c1ccc(Cl)cc1)CCCC2)C1CCCCC1` (mixture of isomers) [Example 59, [rac]-2-[2-(4-Chloro-phenyl)-4,5,6,7-tetrahydro-2H-indazol-3-yl]-2-cyclohexyl-(trans)-N-(4-hydroxy-cyclohexyl)-acetamide], 3040 nM; that for `O=C(O)c1ccc(NC(=O)C(c2c3c(nn2-c2ccc(Cl)cc2)CCCC3)C2CCCCC2)cc1` (stereo not shown) [Example 7, 4-{2-[2-(4-Chloro-phenyl)-4,5,6,7-tetrahydro-2H-indazol-3-yl]-2-cyclohexyl-acetylamino}-benzoic acid], 800 nM.
Molecule `O=C(O)c1ccc(NC(=O)C(c2c3c(nn2-c2ccc(Cl)cc2)CCCC3)C2CCCCC2)c(F)c1` (stereo not shown) [Example 11, 4-{2-[2-(4-Chloro-phenyl)-4,5,6,7-tetrahydro-2H-indazol-3-yl]-2-cyclohexyl-acetylamino}-3-fluoro-benzoic acid] registered an IC50 of 1300 nM.
In turn, `O=C(Nc1ccc(-c2nnn[nH]2)cc1)C(c1c2c(nn1-c1ccc(Cl)cc1)CCCC2)C1CCCCC1` (racemic) [Example 57, [rac]-2-[2-(4-Chloro-phenyl)-4,5,6,7-tetrahydro-2H-indazol-3-yl]-2-cyclohexyl-N[4-(1H-tetrazol-5-yl)-phenyl]-acetamide] came in with an IC50 of 45 nM.
Under `O=C(NC1CCCC1)C(O)(c1c2c(nn1-c1ccc(Cl)cc1)CCCC2)C1CCCCC1` (stereo not shown) [Example 9, 2-[2-(4-Chloro-phenyl)-4,5,6,7-tetrahydro-2H-indazol-3-yl]-2-cyclohexyl-N-cyclopentyl-2-hydroxy-acetamide] stands 4860 nM; under `Cc1cc(C(=O)O)cc(C)c1OCC(c1c2c(nn1-c1ccc(Cl)cc1)CCCC2)C1CCCCC1` (racemic) [Example 40, [rac]-4-{2-[2-(4-Chloro-phenyl)-4,5,6,7-tetrahydro-2H-indazol-3-yl]-2-cyclohexyl-ethoxy}-3,5-dimethyl-benzoic acid], 360 nM; under `Cc1cc(-c2nnn[nH]2)cc(C)c1OCC(c1c2ccccc2nn1-c1ccc(Cl)cc1)C1CCCCC1` (racemic) [Example 52, [rac]-2-(4-Chloro-phenyl)-3-{1-cyclohexyl-2-[2,6-dimethyl-4-(2H-tetrazol-5-yl)-phenoxy]-ethyl}-2H-indazole], 4 nM.
In the case of `O=C(NC1CCCC1)C(c1c2c(nn1-c1ccc(Cl)cc1)CCCC2)C1CCCCC1` (stereo not shown) [Example 8, 2-[2-(4-Chloro-phenyl)-4,5,6,7-tetrahydro-2H-indazol-3-yl]-2-cyclohexyl-N-cyclopentyl-acetamide], the IC50 worked out at 1060 nM.
Under `O=C(O)c1ccc(NC(=O)C(c2c3c(nn2-c2ccc(Cl)cc2)CCCC3)C2CCCCC2)c(C(F)(F)F)c1` (racemic) [Example 20, [rac]-4-{2-[2-(4-Chloro-phenyl)-4,5,6,7-tetrahydro-2H-indazol-3-yl]-2-cyclohexyl-acetylamino}-3-trifluoromethyl-benzoic acid] stands 330 nM.
The molecule `O=C(O)c1ccc(NC(=O)C(c2c3ccccc3nn2-c2ccc(Cl)cc2)C2CCCCC2)c(F)c1` (stereo not shown) [Example 13, 4-{2-[2-(4-Chloro-phenyl)-2H-indazol-3-yl]-2-cyclohexyl-acetylamino}-3-fluoro-benzoic acid] had an IC50 of 4900 nM. This IC50 lies about 15-fold higher than the previous one.
The result for `O=C(O)c1ccc(COC(c2c3cc(F)c(F)cc3nn2-c2ccc(Cl)cc2)C2CCCCC2)cc1` (racemic) [Example 27, [rac]-4-{[2-(4-Chloro-phenyl)-5,6-difluoro-2H-indazol-3-yl]-cyclohexyl-methoxymethyl}-benzoic acid] reads 245 nM.
On to `O=C(Nc1ccc(-c2nnn[nH]2)cc1F)C(c1c2c(nn1-c1ccc(Cl)cc1)CCCC2)C1CCCCC1` (racemic) [Example 58, [rac]-2-[2-(4-Chloro-phenyl)-4,5,6,7-tetrahydro-2H-indazol-3-yl]-2-cyclohexyl-N-[2-fluoro-4-(1H-tetrazol-5-yl)-phenyl]-acetamide], for which the IC50 amounted to 53 nM.
Under `Cc1cc(C(=O)O)cc(C)c1OC(c1c2cc(F)c(F)cc2nn1-c1ccc(Cl)cc1)C1CCCCC1` (racemic) [Example 34, [rac]-4-{[2-(4-Chloro-phenyl)-5,6-difluoro-2H-indazol-3-yl]-cyclohexyl-methoxy}-3,5-dimethyl-benzoic acid] stands 2130 nM; under `O=C(O)c1ccc(NC(=O)C(c2c3c(nn2-c2ccc(Cl)cc2)CCCC3)C2CCCCC2)c(Cl)c1` (racemic) [Example 62, [rac]-3-Chloro-4-{2-[2-(4-chloro-phenyl)-4,5,6,7-tetrahydro-2H-indazol-3-yl]-2-cyclohexyl-acetylamino}-benzoic acid], 80 nM; under `Fc1cc2nn(-c3ccc(Cl)cc3)c(C(Oc3ccc(-c4nnn[nH]4)cc3F)C3CCCCC3)c2cc1F` (racemic) [Example 50, [rac]-2-(4-Chloro-phenyl)-3-{cyclohexyl-[2-fluoro-4-(1H-tetrazol-5-yl)-phenoxy]-methyl}-5,6-difluoro-2H-indazole], 58 nM.
On to `Fc1cc2nn(-c3ccc(Cl)cc3)c(C(COc3ccc(-c4nnn[nH]4)cc3F)C3CCCCC3)c2cc1F` (racemic) [Example 36, [rac]-2-(4-Chloro-phenyl)-3-{1-cyclohexyl-2-[2-fluoro-4-(2H-tetrazol-5-yl)-phenoxy]-ethyl}-5,6-difluoro-2H-indazole], for which the IC50 is 400 nM.
The result for `Fc1cc(-c2nnn[nH]2)ccc1OCC(c1c2c(nn1-c1ccc(Cl)cc1)CCCC2)C1CCCCC1` (racemic) [Example 38, [rac]-2-(4-Chloro-phenyl)-3-{1-cyclohexyl-2-[2-fluoro-4-(1H-tetrazol-5-yl)-phenoxy]-ethyl}-4,5,6,7-tetrahydro-2H-indazole] reads 109 nM.
The result for `Clc1ccc(-n2nc3ccccc3c2C(OCc2ccc(-c3nnn[nH]3)cc2)C2CCCCC2)cc1` (racemic) [Example 47, [rac]-2-(4-Chloro-phenyl)-3-{cyclohexyl-[4-(2H-tetrazol-5-yl)-benzyloxy]-methyl}-2H-indazole] reads 2 nM; that for `O=C(O)c1ccc(OCC(c2c3ccccc3nn2-c2ccc(Cl)cc2)C2CCCCC2)nc1` (racemic) [Example 53, [rac]-6-{2-[2-(4-Chloro-phenyl)-2H-indazol-3-yl]-2-cyclohexyl-ethoxy}-nicotinic acid], 730 nM; that for `O=C(O)c1ccc(COC(c2c3c(nn2-c2ccc(Cl)cc2)CCCC3)C2CCCCC2)cc1` (racemic) [Example 28, [rac]-4-{[2-(4-Chloro-phenyl)-4,5,6,7-tetrahydro-2H-indazol-3-yl]-cyclohexyl-methoxymethyl}-benzoic acid], 510 nM.
Under `O=C(O)CCc1ccc(NC(=O)C(c2c3c(nn2-c2ccc(Cl)cc2)CCCC3)C2CCCCC2)c(F)c1` (racemic) [Example 61, [rac]-3-(4-{2-[2-(4-Chloro-phenyl)-4,5,6,7-tetrahydro-2H-indazol-3-yl]-2-cyclohexyl-acetylamino}-3-fluoro-phenyl)-propionic acid] stands 130 nM.
With `O=C(O)c1ccc(NC(=O)C(c2c3ccccc3nn2-c2ccc(Cl)cc2)C2CCCCC2)cc1` (stereo not shown) [Example 12, 4-{2-[2-(4-Chloro-phenyl)-2H-indazol-3-yl]-2-cyclohexyl-acetylamino}-benzoic acid], the IC50 was determined as 7300 nM.
`COC(=O)c1ccc(COC(c2c3ccccc3nn2-c2ccc(Cl)cc2)C2CCCCC2)cc1` (racemic) [Example 17] had an IC50 of 7540 nM.

These data come from US8008505B2, “Indazole or 4,5,6,7-tetrahydro-indazole derivatives” (Hoffmann-La Roche Inc., priority 2008, dated 2011).
